Reference: US20040191312A1, “5-HT3 receptor agonists as neuroprotectors” (priority 2002, published 2004)

How the values were obtained:
5-HT3 receptor = biological target: T1, 5-HT3 receptor (Homo sapiens, UniProt P46098); conditions: known 5-HT3 agonists; van Hooft et al. 1997, Morain et al. 1994; cited from earlier work
T1 sequence (P46098 24-478): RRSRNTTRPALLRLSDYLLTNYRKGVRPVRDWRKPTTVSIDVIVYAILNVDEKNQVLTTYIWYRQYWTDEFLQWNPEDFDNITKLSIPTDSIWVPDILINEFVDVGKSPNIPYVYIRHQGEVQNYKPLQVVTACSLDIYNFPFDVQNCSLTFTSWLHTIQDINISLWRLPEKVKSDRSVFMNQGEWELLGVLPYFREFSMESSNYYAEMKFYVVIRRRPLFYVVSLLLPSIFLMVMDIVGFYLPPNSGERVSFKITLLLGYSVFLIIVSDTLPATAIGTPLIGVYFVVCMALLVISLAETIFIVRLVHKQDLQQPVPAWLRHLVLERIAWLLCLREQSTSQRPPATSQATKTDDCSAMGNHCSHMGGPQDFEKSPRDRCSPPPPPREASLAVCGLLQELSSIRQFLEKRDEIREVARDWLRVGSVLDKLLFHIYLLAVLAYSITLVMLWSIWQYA

[1] = system: primary neuron cultures (OGD-induced cell death); assay: LOPAC library screen using the oxygen-glucose deprivation (OGD) assay, ATP content as index of cell viability; conditions: for activity at 10 µM: Rattus norvegicus, Primary neuron, read-out: Activity (% Cells Alive)
Procedure: Primary neuron cultures were prepared as follows: Brain cortices from E18 rat brains were dissected in DPBS without calcium and magnesium. They were digested at 37° C. for 30 min with trypsin. The digestion was stopped by addition of MEM, 10% Fetal Bovine Serum (FBS)and 10% Horse Serum. DNase (10 U/ml) was also added. The tissues were mechanically triturated using a pipette. This step was repeated until all cells were dissociated and then they were filtered through a 70 um Nitrex mesh. The cells were counted and plated in poly ornithine-coated 96-well culture plates at 5×10^5 cells/well in MEM containing 10% HS and 10% FBS. Three days later, the medium was changed to neurobasal-serum free containing B27 and SATO (Sodium selenite 4 μg/ml, transferrrin 100 μg/ml, BSA 100 μg/ml, progesterone 62 μg/ml, putrescine 160 μg/ml). 5-Fluoro-2′deoxyuridine (FdU 30 μM) was added to inhibit the dividing microglia from the cultures. The culture medium was changed every 3 days leaving half volume of the old (conditioned) media and adding half volume of fresh media. All experiments were performed in 11-12 days-old neuronal cultures. The cells were maintained at 37° C. in a 5% CO2 humidified incubator.
The compounds from the LOPAC library, obtained from Sigma, were plated in 96-wells at 200 μM (20× the final concentration).
The neuronal cultures were pre-incubated with the compounds (10 μM final concentration) for 2 hours. The cells were then subjected to oxygen glucose deprivation (OGD) for 120 min at 37° C. in presence of the compounds of the library. Cultures were placed in an anaerobic chamber (Forma Scientific) and washed two times with balanced salt solution (116 mM NaCl, 5.4 mM KCl, 1 mM NaH2PO4, 1.8 mm CaCl2, 26.2 mM NaHCO3, 0.01 mM glycine, pH=7.4) lacking glucose and aerated with an anaerobic gas mix (85% N2/5% CO2/10% H2) to remove residual oxygen. Control cultures were kept in the original neurobasal media but were submitted to the anaerobic conditions. MK-801 (10 μM), a non competitive NMDA receptor antagonist was used to prevent cell death after OGD caused by activation of the NMDA receptors. To terminate the oxygen glucose deprivation, the cells were removed from the anaerobic chamber and the OGD media was removed and replaced with neurobasal media. The compounds were added back for an additional 20 hours.
Cells were lysed and ATP content was measured as an index for cell viability using a commercially available reagent (Cell Titter Glo from Promega). This assay generates a luminescent signal produced by the luciferase reaction.

| Compound | EC50 (5-HT3 receptor) [µM] | activity at 10 µM [1] [%] | Activity (% Cells Alive) ([1]; 10 μM compound, 2 h pre-incubation, OGD 120 min, compound added back 20 h, ATP content (Cell Titter Glo)) [%] |
| --- | --- | --- | --- |
| Cc1[nH]c2ccc(O)cc2c1CCN [2-methyl-5-HT, reference compound] | 5 to 8 | – | – |
| N=C(N)NC(=N)Nc1ccccc1 [Formula II, N-phenyl-imidocarbonimidicdiamide] | 22 | 67 ± 25 | – |
| NC1CCN(c2cccc(Cl)n2)CC1 [Formula V, 1-(6-chloro-2-pyridinyl)-4-piperidinamine] | – | 80 ± 27 | – |
| Cc1[nH]c2ccc(O)cc2c1CCN.O=C(O)/C=C\C(=O)O [Formula III, 2-methyl-5-hydroxytryptaminemaleate] | – | – | 106 ± 25 |
| CN1CCN(c2ccc3ccccc3n2)CC1 [Formula IV, 2-(1-(4-methyl)-piperazineyl)quinolinedimaleate] | – | 103 ± 30 | – |
| N=C(N)NC(=N)Nc1cccc(Cl)c1 [Formula I, 1-(m-chlorophenyl)-biguanide] | 0.4 | 106 ± 6 | – |
